The format of data set [1] is binding.
For data set [2] the following is noted: NMR, cited from earlier work. The source says:
These values are considerably higher than expected in a hydrophobic environment (8.00 ± 0.03). […] T ...

For data set [3] the following is noted: POPC vesicles; cited from earlier work. The text has this:
Since the early observations by Lear and de Grado [2] showing that membrane fusion of lipid vesicles can be accomplished by a short N-terminal synthetic fragment of HA2 subunit, such fusion peptides (HAfp) have been extensively used as full-length hemagglutinin mimicking species in the studies on membrane fusion. […] This is ...

For data set [4] the following is noted: pH 5.

Each structure is given as a SMILES string. Where “and” joins values, the source holds several entries; their conditions need not be identical. Equal entries are not always repeated. Where two headings read alike, the source gives them in different places.

Turning to `CC[C@H](C)[C@H](NC(=O)[C@H](C)NC(=O)CNC(=O)[C@H](Cc1ccccc1)NC(=O)[C@H](CC(C)C)NC(=O)CNC(C)=O)C(=O)N[C@@H](C)C(=O)NCC(=O)N[C@@H](Cc1ccccc1)C(=O)N[C@H](C(=O)N[C@@H](CCC(=O)O)C(=O)NCC(=O)NCC(=O)N[C@@H](Cc1c[nH]c2ccccc12)C(=O)N[C@@H](CCC(N)=O)C(=O)NCC(=O)N[C@@H](CCSC)C(=O)N[C@H](C(=O)N[C@@H](CC(=O)O)C(=O)NCC(N)=O)C(C)C)[C@@H](C)CC` [20Ac], the “Gibbs binding free energy ΔGx^0” value in data set [1] (pH 5.0) was -7.55 ± 0.048 kcal/mol; in data set [1] (pH 7.4), -6.86 ± 0.048 kcal/mol.
For the compound `CC[C@H](C)[C@H](NC(=O)[C@H](C)NC(=O)CNC(=O)[C@H](Cc1ccccc1)NC(=O)[C@H](CC(C)C)NC(=O)CN)C(=O)N[C@@H](C)C(=O)NCC(=O)N[C@@H](Cc1ccccc1)C(=O)N[C@H](C(=O)N[C@@H](CCC(=O)O)C(=O)NCC(=O)NCC(=O)N[C@@H](Cc1c[nH]c2ccccc12)C(=O)N[C@@H](CCC(N)=O)C(=O)NCC(=O)N[C@@H](CCSC)C(=O)N[C@H](C(=O)N[C@@H](CC(=O)O)C(=O)NCC(N)=O)C(C)C)[C@@H](C)CC` [20N+], the entries for the “Gibbs binding free energy ΔGx^0” value in data set [1] (pH 5.0) and in data set [1] (pH 7.4) were -7.84 ± 0.072 kcal/mol and -7.19 ± 0.096 kcal/mol, respectively. The “pK for G1 N-terminal amino group” value in data set [2] (in the presence of dioleoyl phosphocholine (PC) lipids) is on record as 8.69. For the same compound, the “Ability to induce membrane fusion, in words” value in data set [3] was “able to induce membrane fusion”. In addition, the “NBD-C6-PE fluorescence lifetime with peptide” value in data set [4] stood at 6.78 ± 0.20 ns.
For the compound `CC[C@H](C)[C@H](NC(=O)[C@H](C)NC(=O)CNC(=O)[C@H](Cc1ccccc1)NC(=O)[C@H](CC(C)C)NC(=O)CNC(C)=O)C(=O)N[C@@H](C)C(=O)NCC(=O)N[C@@H](Cc1ccccc1)C(=O)N[C@H](C(=O)N[C@@H](CCC(=O)O)C(=O)NCC(=O)NCC(=O)N[C@@H](Cc1c[nH]c2ccccc12)C(=O)N[C@@H](CCC(N)=O)C(=O)NCC(=O)N[C@@H](CCSC)C(=O)N[C@H](C(=O)N[C@@H](CC(=O)O)C(=O)NCC(=O)N[C@@H](Cc1c[nH]c2ccccc12)C(=O)N[C@@H](Cc1ccc(O)cc1)C(=O)NCC(N)=O)C(C)C)[C@@H](C)CC` [23Ac], in data set [1] (pH 5.0), the “Difference of ∆G^0 between N-acetylated and unmodified peptide of the same length” value was ~ 2.3 kJ/mol; the “Gibbs binding free energy ΔGx^0” value was -8.41 ± 0.072 kcal/mol. Also, the “Gibbs binding free energy ΔGx^0” value in data set [1] (pH 7.4) was -8.94 ± 0.048 kcal/mol. The “NBD-C6-PE fluorescence lifetime with peptide” value in data set [4] is 6.66 ± 0.25 ns.
Turning to `CC[C@H](C)[C@H](NC(=O)[C@H](C)NC(=O)CNC(=O)[C@H](Cc1ccccc1)NC(=O)[C@H](CC(C)C)NC(=O)CN)C(=O)N[C@@H](C)C(=O)NCC(=O)N[C@@H](Cc1ccccc1)C(=O)N[C@H](C(=O)N[C@@H](CCC(=O)O)C(=O)NCC(=O)NCC(=O)N[C@@H](Cc1c[nH]c2ccccc12)C(=O)N[C@@H](CCC(N)=O)C(=O)NCC(=O)N[C@@H](CCSC)C(=O)N[C@H](C(=O)N[C@@H](CC(=O)O)C(=O)NCC(=O)N[C@@H](Cc1c[nH]c2ccccc12)C(=O)N[C@@H](Cc1ccc(O)cc1)C(=O)NCC(N)=O)C(C)C)[C@@H](C)CC` [23N+], in data set [1] (22.0 °C), the “Partition coefficient Kx·10^−3” value is 660 ± 80 and 480 ± 130. In addition, the “Gibbs binding free energy ΔGx^0” value was -7.86 ± 0.072 kcal/mol in data set [1] (pH 5.0) and -7.67 ± 0.17 kcal/mol in data set [1] (pH 7.4). Also, the “pK for G1 N-terminal amino group” value in data set [2] (in the presence of dodecylphosphatidyl (DPC) detergents) is reported as 8.8. The “NBD-C6-PE fluorescence lifetime with peptide” value in data set [4] is recorded as 6.55 ± 0.23 ns.

Source of the values: article PMC5855800, “Charged N-terminus of Influenza Fusion Peptide Facilitates Membrane Fusion” (International Journal of Molecular Sciences, 2018).
